Results on 14 molecules are retold here after patent publication US6720346B2, “Thiazole benzamide derivatives and pharmaceutical compositions for inhibiting cell proliferation” (Agouron Pharmaceuticals, Inc., priority 2001, dated 2004).

One assay deals with T1, CDK2/cyclin A (Homo sapiens, UniProt P24941).
T1 construct: made in house; host or cells: CDK2: insect cells (baculovirus); cyclin A: E. coli
The experiment in a line: Inhibition of CDK2/cyclin A retinoblastoma kinase activity (Ki; % inhibition). The format is biochemical. In a few lines:
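Radiometric filter assay of CDK2/proteolyzed cyclin A (baculovirus-expressed human CDK2, 10 or 19 nM) phosphorylating an Rb fragment with 25 μM [³²P/³³P]ATP in pH 7.4 HEPES, 2% DMSO, at 30 °C for 60 or 75 min under initial-rate conditions. Library compounds screened at 30 nM for % inhibition; apparent Ki from concentration series fit to competitive or tight-binding inhibition equations.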

Another assay deals with T2, human CDK4/cyclin D3 (Homo sapiens, UniProt P11802).
T2 construct: made in house; host or cells: insect cells co-infected with baculovirus vectors
The experiment in a line: Inhibition of CDK4/cyclin D retinoblastoma kinase activity (Ki; % inhibition). The format is biochemical. Summed up:
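Insect-cell-expressed CDK4 with truncated cyclin D3 (1-264), 5 nM, phosphorylating His-tagged Rb fragment (386-928) with 25 μM [32/33P]ATP at pH 7.4, 30 °C, 20 min (60 min for tight binders). Filter capture, phosphorimager read; % inhibition at 30 nM compound, Ki from competitive or tight-binding fits.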

For another assay, the system named is HCT-116 cell line. The experiment in a line: Inhibition of cell growth, MTT tetrazolium salt assay. Format: cell-based. In a few lines: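 HCT-116 cells in McCoy's 5A were dosed 4 h after plating with compounds in 0.5% DMSO and grown 3–5 days at 37 °C. Then 0.2 mg/mL MTT was added for 4 h and formazan absorbance read at 540 nm. IC50/IC90 came from semi-log plots against DMSO-only controls.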
(In general: Tetrazolium dyes change colour on reduction, which living cells bring about.)

Where [1] appears, read: HCT-116 cells, 0.25 μM compound.

The term IC50 denotes the concentration needed to halve the response being measured.

SMILES strings stand for the structures.

T2 sequence (P11802 whole entry): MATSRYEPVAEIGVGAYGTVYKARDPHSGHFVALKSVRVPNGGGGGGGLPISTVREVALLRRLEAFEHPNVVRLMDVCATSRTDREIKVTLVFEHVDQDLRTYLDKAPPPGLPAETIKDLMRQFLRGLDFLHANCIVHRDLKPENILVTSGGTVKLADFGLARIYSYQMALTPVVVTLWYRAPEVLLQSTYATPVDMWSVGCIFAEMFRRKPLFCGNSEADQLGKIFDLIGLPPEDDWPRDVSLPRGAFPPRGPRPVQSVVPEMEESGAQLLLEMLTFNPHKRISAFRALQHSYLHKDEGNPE
T2 sequence (P30281 1-264 partner limits assumed): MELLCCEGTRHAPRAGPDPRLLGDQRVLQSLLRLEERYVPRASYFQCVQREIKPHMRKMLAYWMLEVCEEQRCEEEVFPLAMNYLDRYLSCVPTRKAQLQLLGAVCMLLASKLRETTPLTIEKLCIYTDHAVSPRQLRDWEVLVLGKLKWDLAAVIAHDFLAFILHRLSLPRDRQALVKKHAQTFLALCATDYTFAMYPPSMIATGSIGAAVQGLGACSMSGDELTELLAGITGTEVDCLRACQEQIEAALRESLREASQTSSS

Consider `Nc1nc(Nc2ccc(C(=O)NCCc3cccnc3)cc2)sc1C(=O)c1c(F)cccc1F` [Example G343], for which the “CDK2 % Inhibition at 0.03 μM” value on CDK2/cyclin A (0.03 μM compound) came to 1%. Moreover, the “CDK4 % Inhibition at 0.03 μM” value on human CDK4/cyclin D3 (0.03 μM compound) is reported as 12%. Further, in the assay on HCT-116 cell line (HCT-116 cells, 0.1 μM compound), the “HCT-116 % Inhibition at 0.1 μM” value is listed as 27%. For the same molecule, the “HCT-116 % Inhibition at 0.25 μM” value in the assay with HCT-116 cell line (setting [1]) is recorded as 71%.

On to `CC(=O)N1CCC[C@H]1CNC(=O)c1ccc(Nc2nc(N)c(C(=O)c3c(F)cccc3F)s2)cc1` [Example A10, 4-[4-Amino-5-(2,6-difluoro-benzoyl)-thiazol-2S-ylamino]-N-(1-Acetyl-pyrrolidin-2S-ylmethyl)-benzamide], for which the Ki at CDK2/cyclin A (apparent Ki, CDK2/cyclin A, Rb substrate) came out at 290 nM; at human CDK4/cyclin D3 (apparent Ki, CDK4/cyclin D3, Rb substrate), 49 nM. The IC50 in the assay on HCT-116 cell line (Homo sapiens, HCT-116, 120 h, MTT, three to five days) is 1600 nM.

In the case of `Nc1nc(Nc2ccc(C(=O)NC3CCCC3)cc2)sc1C(=O)c1c(F)cccc1F` [Example G131], the “CDK2 % Inhibition at 0.03 μM” value at CDK2/cyclin A (at 0.03 μM) was 6%. In addition, the “CDK4 % Inhibition at 0.03 μM” value on human CDK4/cyclin D3 (at 0.03 μM) was 16%. In addition, the “HCT-116 % Inhibition at 0.1 μM” value with HCT-116 cell line (HCT-116, at 0.1 μM) was 0%. In addition, the “HCT-116 % Inhibition at 0.25 μM” value in the assay on HCT-116 cell line (HCT-116, at 0.25 μM) came to 58%.

With `Nc1nc(Nc2ccc(C(=O)N3CCC4(CC3)OCCO4)cc2)sc1C(=O)c1c(F)cccc1F` [Example G34], the “CDK2 % Inhibition at 0.03 μM” value on CDK2/cyclin A (at 0.03 μM) turned out to be 8%. Also, the “CDK4 % Inhibition at 0.03 μM” value at human CDK4/cyclin D3 (at 0.03 μM) was determined as 9%. In the assay on HCT-116 cell line (HCT-116, at 0.25 μM), the “HCT-116 % Inhibition at 0.25 μM” value turned out to be 53%.

Take `CC(C)c1ccccc1NC(=O)c1ccc(Nc2nc(N)c(C(=O)c3c(F)cccc3F)s2)cc1` [Example G51]: on CDK2/cyclin A (at 0.03 μM), the “CDK2 % Inhibition at 0.03 μM” value turned out to be 9%. At human CDK4/cyclin D3 (at 0.03 μM), the “CDK4 % Inhibition at 0.03 μM” value was −1%. Also, the “HCT-116 % Inhibition at 0.25 μM” value in the assay on HCT-116 cell line (HCT-116, at 0.25 μM) is recorded as 89%.

As for `CN(CCC1OCCO1)C(=O)c1ccc(Nc2nc(N)c(C(=O)c3c(F)cccc3F)s2)cc1` [Example G387], the “CDK2 % Inhibition at 0.03 μM” value at CDK2/cyclin A (0.03 μM compound) came to 10%. Besides, on human CDK4/cyclin D3 (0.03 μM compound), the “CDK4 % Inhibition at 0.03 μM” value is given as 11%. The “HCT-116 % Inhibition at 0.1 μM” value with HCT-116 cell line (HCT-116 cells, 0.1 μM compound) is on record as 32%. Besides, in the assay with HCT-116 cell line (setting [1]), the “HCT-116 % Inhibition at 0.25 μM” value was 52%.

As for `Nc1nc(Nc2ccc(C(=O)Nc3ccc(Cl)c(Cl)c3)cc2)sc1C(=O)c1c(F)cccc1F` [Example G84], the “CDK2 % Inhibition at 0.03 μM” value at CDK2/cyclin A (at 0.03 μM) is given as 9%. On human CDK4/cyclin D3 (at 0.03 μM), the “CDK4 % Inhibition at 0.03 μM” value was determined as 3%. The “HCT-116 % Inhibition at 0.25 μM” value with HCT-116 cell line (HCT-116, at 0.25 μM) was 63%.

Consider `Nc1nc(Nc2ccc(C(=O)NCCN3CCNC3=O)cc2)sc1C(=O)c1c(F)cccc1F` [Example G229], for which the “CDK2 % Inhibition at 0.03 μM” value at CDK2/cyclin A (0.03 μM compound) is 12%. Besides, the “CDK4 % Inhibition at 0.03 μM” value on human CDK4/cyclin D3 (0.03 μM compound) turned out to be 9%. Besides, the “HCT-116 % Inhibition at 0.1 μM” value in the assay on HCT-116 cell line (HCT-116 cells, 0.1 μM compound) stood at 8%. Besides, in the assay on HCT-116 cell line (setting [1]), the “HCT-116 % Inhibition at 0.25 μM” value was found to be 44%.

Regarding `Nc1nc(Nc2ccc(C(=O)Nc3cccc(OC(F)(F)F)c3)cc2)sc1C(=O)c1c(F)cccc1F` [Example G292], the “CDK2 % Inhibition at 0.03 μM” value at CDK2/cyclin A (0.03 μM compound) is on record as −31%. In addition, the “CDK4 % Inhibition at 0.03 μM” value at human CDK4/cyclin D3 (0.03 μM compound) was −15%. The “HCT-116 % Inhibition at 0.1 μM” value in the assay with HCT-116 cell line (HCT-116 cells, 0.1 μM compound) was determined as 0%. Moreover, the “HCT-116 % Inhibition at 0.25 μM” value with HCT-116 cell line (setting [1]) is 60%.

`COC(=O)c1ccc(NC(=O)c2ccc(Nc3nc(N)c(C(=O)c4c(F)cccc4F)s3)cc2)cc1` [Example G61]: the “CDK2 % Inhibition at 0.03 μM” value at CDK2/cyclin A (at 0.03 μM) amounted to 19%. Moreover, the “CDK4 % Inhibition at 0.03 μM” value at human CDK4/cyclin D3 (at 0.03 μM) is 19%. The “HCT-116 % Inhibition at 0.25 μM” value with HCT-116 cell line (HCT-116, at 0.25 μM) is on record as 58%.

With `CN(CC(O)CO)C(=O)c1ccc(Nc2nc(N)c(C(=O)c3c(F)cccc3F)s2)cc1` (stereo not drawn) [Example G174], the “CDK2 % Inhibition at 0.03 μM” value at CDK2/cyclin A (at 0.03 μM) is on record as 0%. On human CDK4/cyclin D3 (at 0.03 μM), the “CDK4 % Inhibition at 0.03 μM” value was determined as 15%. Further, in the assay with HCT-116 cell line (HCT-116, at 0.1 μM), the “HCT-116 % Inhibition at 0.1 μM” value is 28%. Besides, the “HCT-116 % Inhibition at 0.25 μM” value with HCT-116 cell line (HCT-116, at 0.25 μM) turned out to be 56%.

For the molecule `CCC(CO)NC(=O)c1ccc(Nc2nc(N)c(C(=O)c3c(F)cccc3F)s2)cc1` (stereo not drawn) [Example G183], the “CDK2 % Inhibition at 0.03 μM” value at CDK2/cyclin A (at 0.03 μM) amounted to 23%. Further, on human CDK4/cyclin D3 (at 0.03 μM), the “CDK4 % Inhibition at 0.03 μM” value is 38%. Moreover, the “HCT-116 % Inhibition at 0.1 μM” value with HCT-116 cell line (HCT-116, at 0.1 μM, 0.1 µM) worked out at 11%. In the assay on HCT-116 cell line (HCT-116, at 0.25 μM, 0.25 µM), the “HCT-116 % Inhibition at 0.25 μM” value was 48%.

`Nc1nc(Nc2ccc(C(=O)NCCCCc3ccccc3)cc2)sc1C(=O)c1c(F)cccc1F` [Example G291]: the “CDK2 % Inhibition at 0.03 μM” value at CDK2/cyclin A (0.03 μM compound) is 6%. The “CDK4 % Inhibition at 0.03 μM” value at human CDK4/cyclin D3 (0.03 μM compound) is on record as 14%. Moreover, the “HCT-116 % Inhibition at 0.1 μM” value in the assay on HCT-116 cell line (HCT-116 cells, 0.1 μM compound) is on record as 5%. The “HCT-116 % Inhibition at 0.25 μM” value with HCT-116 cell line (setting [1]) worked out at 53%.

With `Nc1nc(Nc2ccc(C(=O)NCCc3ccc(F)cc3)cc2)sc1C(=O)c1c(F)cccc1F` [Example G355], at CDK2/cyclin A (0.03 μM compound), the “CDK2 % Inhibition at 0.03 μM” value was found to be 29%. Besides, the “CDK4 % Inhibition at 0.03 μM” value on human CDK4/cyclin D3 (0.03 μM compound) is on record as 13%. The “HCT-116 % Inhibition at 0.1 μM” value in the assay on HCT-116 cell line (HCT-116 cells, 0.1 μM compound) worked out at 28%. In the assay with HCT-116 cell line (setting [1]), the “HCT-116 % Inhibition at 0.25 μM” value is on record as 54%.
